Measured values published in patent publication US20230286973A1, “PROTEIN SECRETION INHIBITORS” (KEZAR LIFE SCIENCES, priority 2020, published 2023).

Legend:
[1] = system: HER3-ss+4aa/Gaussia Luciferase; assay: Dox-Induced Her3-ss-Gluc Assay; format: cell-based; conditions: 24 hr Dox induction; 293FRT/TO cells; mean; read-out: 24 hr Dox Inducible Her3(ss + 4)Gluc 293FRT/TO: Mean IC50
Outline: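 Stable Flp-In 293 T-REx line expressing Gaussia luciferase fused to the HER3 signal sequence plus 4 amino acids under tetracycline-regulated (T-REx) control. Cells plated the day before, then treated with compound dilutions in DMSO/media containing doxycycline and incubated at 37° C., 5% CO2.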

[2] = Liver Microsome Stability Assay (mouse); conditions: mouse liver microsomes, with NADPH, 1.0 uM compound
Experimental: (§1) Stability of a compound was assessed in the presence of liver microsomes from various sources—mouse, rat, monkey and human liver microsomes. 1.0 uM compound, 0.4% DMSO in 0.1 M Potassium Phosphate with 1.0 mg/mL liver microsomes, were incubated at 37° C. with or without 1 mM NADPH. The samples were quenched at 0, and 30 minutes.

[3] = Liver Microsome Stability Assay (human); conditions: human liver microsomes, with NADPH, 1.0 uM compound
Experimental: as §1

[4] = Liver Microsome Stability Assay (monkey); conditions: monkey liver microsomes, with NADPH, 1.0 uM compound
Experimental: as §1

[5] = system: multiple myeloma cell line NCI-H929; assay: H929 Cell Viability Assay; format: cell-based, human; conditions: Homo sapiens, NCI-H929, 48 h, NCI-H929 cells, Celltiter-Glo
Outline: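 NCI-H929 cells, resuspended in RPMI 1640 with 10% FBS and 2 mM glutamine, were treated with compound dilutions in DMSO/media and incubated 48 hours at 37° C, 5% CO2. Viability was read by CellTiter-Glo luminescence. Compounds drawn without stereochemistry were tested as stereoisomer mixtures.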

[6] = system: TNFα-FL/Gaussia Luciferase; assay: Dox Induced TNFα-FL-Gluc Assay; format: cell-based; conditions: for IC50: 24 hr Dox induction, 293FRT/TO cells, mean, read-out: 24 hr Dox Inducible TNFaFLGluc 293FRT/TO: Mean IC50; for 24 hr Dox Inducible TNFaFLGluc 293FRT/TO: TNF/PD1: ratio of TNFaFLGluc IC50 to PD1ssGluc IC50, '<=>' given where both are I.A.
Outline: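 Flp-In 293 T-REx cells stably expressing full-length TNFα (aa 1-233) fused at its C-terminus to Gaussia luciferase under tetracycline-regulated control were plated the day before assay. Compound dilutions in DMSO/media containing doxycycline were added and incubated at 37 °C, 5% CO2. Unspecified stereochemistry denotes stereoisomer mixtures.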

[7] = Liver Microsome Stability Assay (rat); conditions: rat liver microsomes, with NADPH, 1.0 uM compound
Experimental: as §1

[8] = system: multiple myeloma cell line U266B1; assay: U266 Cell Viability Assay; format: cell-based, human; conditions: Homo sapiens, U-266, 48 h, U266B1 cells, Celltiter-Glo
Outline: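 Cells grown in RPMI 1640 with 10% FBS, 2 mM glutamine and penicillin/streptomycin were exposed to compound dilutions in DMSO/media for 48 hours at 37° C., 5% CO2. Viability was read by CellTiter-Glo luminescence. Undefined stereocentres mean data for stereoisomer mixtures.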

[9] = system: PD1-ss+10aa/Gaussia Luciferase; assay: Dox-Induced PD1-ss-Gluc Assay; format: cell-based; conditions: 24 hr Dox induction; 293FRT/TO cells; mean; read-out: 24 hr Dox Inducible PD1ssGluc 293FRT/TO: Mean IC50
Outline: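 Flp-In 293 T-REx, stable line; Tet-regulated PD1-ss+10aa fused to Gaussia luciferase; plated day prior; cpd + doxycycline in DMSO/media; 37 °C, 5% CO2.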

[10] = system: IL-2-FL/Gaussia Luciferase; assay: Dox Induced IL2-FL-Gluc Assay; format: cell-based; conditions: for IC50: 24 hr Dox induction, 293FRT/TO cells, mean, read-out: 24 hr Dox Inducible IL2FLGluc 293FRT/TO: Mean IC50; for 24 hr Dox Inducible IL2FLGluc 293FRT/TO: IL2/PD1: ratio of IL2FLGluc IC50 to PD1ssGluc IC50, '<=>' given where both are I.A.
Outline: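 Flp-In 293 T-REx cells stably carrying doxycycline-inducible full-length IL-2 (aa 1-153) fused at its C-terminus to Gaussia luciferase, selected with hygromycin and blasticidin. Cells were plated the day before, then treated with compounds in DMSO/media containing doxycycline at 37° C, 5% CO2.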

SMILES	IC50 [1] [nM]	Liver Microsome Stability (Multiple Species): Mouse - % Remaining after 30 min w/NADPH [2] [%]	Liver Microsome Stability (Multiple Species): Human - % Remaining after 30 min w/NADPH [3] [%]	Liver Microsome Stability (Multiple Species): Monkey - % Remaining after 30 min w/NADPH [4] [%]	EC50 [5] [nM]	IC50 [6] [nM]	24 hr Dox Inducible TNFaFLGluc 293FRT/TO: TNF/PD1 [6]	Liver Microsome Stability (Multiple Species): Rat - % Remaining after 30 min w/NADPH [7] [%]	EC50 [8] [nM]	IC50 [9] [nM]	IC50 [10] [nM]	24 hr Dox Inducible IL2FLGluc 293FRT/TO: IL2/PD1 [10]
O=C(Nc1nc([C@H]2CCCN2c2ccncc2)cs1)c1cccn1Cc1ccncc1 [Compound E48, (R)-N-(4-(1-(pyridin-4-yl)pyrrolidin-2-yl)thiazol-2-yl)-1-(pyridin-4-ylmethyl)-1H-pyrrole-2-carboxamide]	13500	2.74	0.93	0.12	> 25000	> 25000	>3.17	0.45	> 25000	7890	7830	0.99
O=C(NC1=NC(CCc2ccccc2)CS1)c1cccn1Cc1ccncc1 (stereo not drawn) [Compound E50]	4370	0.23	0.06	0.08	> 25000	> 25000	>12.8	0.64	> 25000	1960	5560	2.8
O=C(NC1=NC(/C=C/c2ccccc2)CS1)c1cccn1Cc1ccncc1 (stereo not drawn) [Compound E51]	> 25000	0.08	0.01	0.06	> 25000	> 25000		0.98	> 25000	> 25000	> 25000	1
Cc1ccc(S(=O)(=O)N(C(=O)c2cccn2Cc2ccncc2)c2nc([C@H]3CCCN3S(=O)(=O)c3ccc(C)cc3)cs2)cc1 [Compound E52, (R)-1-(pyridin-4-ylmethyl)-N-tosyl-N-(4-(1-tosylpyrrolidin-2-yl)thiazol-2-yl)-1H-pyrrole-2-carboxamide]	> 25000	1.28	0.44	0.32	> 25000	> 25000		9.09	> 25000	> 25000	> 25000	1
O=C(Nc1ccccn1)c1csc(NC(=O)c2cccn2Cc2ccncc2)n1 [Compound E53]	> 25000	5	7.99	2.89	> 25000	> 25000		5.58	> 25000	> 25000	> 25000	1
N#Cc1cnccc1Cn1cccc1C(=O)Nc1nc([C@H]2CCCN2c2ccccc2)cs1 [Compound E59, (R)-1-((3-cyanopyridin-4-yl)methyl)-N-(4-(1-phenylpyrrolidin-2-yl)thiazol-2-yl)-1H-pyrrole-2-carboxamide]	581	0.39	0.22	0.56	15200	12600	30.9	0.83	> 25000	408	932	2.3
N#Cc1cc(Cn2cccc2C(=O)Nc2nc([C@H]3CCCN3c3ccccc3)cs2)ccn1 [Compound E60, (R)-1-((2-cyanopyridin-4-yl)methyl)-N-(4-(1-phenylpyrrolidin-2-yl)thiazol-2-yl)-1H-pyrrole-2-carboxamide]	1280	6.59	1.3	0.19	23600	> 25000	>31.2	2.04	> 25000	802	1690	2.1
Cc1ccc(N2CCC[C@@H]2c2csc(NC(=O)c3cccn3Cc3ccncc3)n2)nc1 [Compound E62, (R)-N-(4-(1-(5-methylpyridin-2-yl)pyrrolidin-2-yl)thiazol-2-yl)-1-(pyridin-4-ylmethyl)-1H-pyrrole-2-carboxamide]	8.52	1.51	0.69	0.19	126	43	14.6	15.4	> 25000	2.94	9.89	3.4
Cc1ccnc(N2CCC[C@@H]2c2csc(NC(=O)c3cccn3Cc3ccncc3)n2)c1 [Compound E63, (R)-N-(4-(1-(4-methylpyridin-2-yl)pyrrolidin-2-yl)thiazol-2-yl)-1-(pyridin-4-ylmethyl)-1H-pyrrole-2-carboxamide]	97	0.72	0.02	0.32	2970	704	11	0.23	> 25000	64	95.2	1.5
Cc1cccnc1N1CCC[C@@H]1c1csc(NC(=O)c2cccn2Cc2ccncc2)n1 [Compound E64, (R)-N-(4-(1-(3-methylpyridin-2-yl)pyrrolidin-2-yl)thiazol-2-yl)-1-(pyridin-4-ylmethyl)-1H-pyrrole-2-carboxamide]	106	0.21	6.7	7.11	3100	377	5.37	0.16	> 25000	70.3	70.5	1
CCc1ccc(N2CCC[C@@H]2c2csc(NC(=O)c3cccn3Cc3ccncc3)n2)nc1 [Compound E65, (R)-N-(4-(1-(5-ethylpyridin-2-yl)pyrrolidin-2-yl)thiazol-2-yl)-1-(pyridin-4-ylmethyl)-1H-pyrrole-2-carboxamide]	14.4	0.33	0.33	0.13	142	71	12.9	2.87	> 25000	5.5	16.4	3
